# Values quoted from earlier work, collected in patent US20030207327A1, “Coisogenic eukaryotic cell collections” (priority 2001, published 2003).
# Residue numbers refer to the chain shown, from its start. Where two headings read alike, the source gives them in different places.
# Tests used:
# [1] = system: beta tubulin (Isoform M40)
# [2] = biological target: T1, TPMT (thiopurine S-methyltransferase) (Homo sapiens, UniProt P51580, A154T); conditions: TPMT variant G460A, Ala154Thr; OMIM 187680
# T1 sequence (P51580 1-245 A154T): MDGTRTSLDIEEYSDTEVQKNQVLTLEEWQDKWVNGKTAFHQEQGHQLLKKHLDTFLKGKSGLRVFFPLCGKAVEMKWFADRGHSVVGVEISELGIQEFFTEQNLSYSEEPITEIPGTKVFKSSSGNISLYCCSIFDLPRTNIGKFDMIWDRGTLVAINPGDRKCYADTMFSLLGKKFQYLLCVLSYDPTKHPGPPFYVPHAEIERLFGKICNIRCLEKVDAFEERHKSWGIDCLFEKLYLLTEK
# [3] = biological target: T2, TPMT (thiopurine S-methyltransferase) (Homo sapiens, UniProt P51580, A80P); conditions: TPMT variant G238C, Ala80Pro; OMIM 187680
# T2 sequence (P51580 1-245 A80P): T1 sequence (P51580 1-245 A154T) with A80P, T154A
# [4] = biological target: T3, TPMT (thiopurine S-methyltransferase) (Homo sapiens, UniProt P51580, R215H); conditions: TPMT variant G644A, Arg215His; OMIM 187680
# T3 sequence (P51580 1-245 R215H): T1 sequence (P51580 1-245 A154T) with T154A, R215H
# [5] = biological target: T4, TPMT (thiopurine S-methyltransferase) (Homo sapiens, UniProt P51580, Y240C); conditions: TPMT variant A719G, Tyr240Cys; OMIM 187680
# T4 sequence (P51580 1-245 Y240C): T1 sequence (P51580 1-245 A154T) with T154A, Y240C
# [6] = system: CYP2D6; conditions: protein variant Gly169Ter; poor drug metabolizer; OMIM 124030
# [7] = biological target: ABCB1 (MDR1, P-glycoprotein) (Homo sapiens, UniProt P08183, G185V)
# Sequence of ABCB1 (MDR1, P-glycoprotein) (P08183 whole entry G185V): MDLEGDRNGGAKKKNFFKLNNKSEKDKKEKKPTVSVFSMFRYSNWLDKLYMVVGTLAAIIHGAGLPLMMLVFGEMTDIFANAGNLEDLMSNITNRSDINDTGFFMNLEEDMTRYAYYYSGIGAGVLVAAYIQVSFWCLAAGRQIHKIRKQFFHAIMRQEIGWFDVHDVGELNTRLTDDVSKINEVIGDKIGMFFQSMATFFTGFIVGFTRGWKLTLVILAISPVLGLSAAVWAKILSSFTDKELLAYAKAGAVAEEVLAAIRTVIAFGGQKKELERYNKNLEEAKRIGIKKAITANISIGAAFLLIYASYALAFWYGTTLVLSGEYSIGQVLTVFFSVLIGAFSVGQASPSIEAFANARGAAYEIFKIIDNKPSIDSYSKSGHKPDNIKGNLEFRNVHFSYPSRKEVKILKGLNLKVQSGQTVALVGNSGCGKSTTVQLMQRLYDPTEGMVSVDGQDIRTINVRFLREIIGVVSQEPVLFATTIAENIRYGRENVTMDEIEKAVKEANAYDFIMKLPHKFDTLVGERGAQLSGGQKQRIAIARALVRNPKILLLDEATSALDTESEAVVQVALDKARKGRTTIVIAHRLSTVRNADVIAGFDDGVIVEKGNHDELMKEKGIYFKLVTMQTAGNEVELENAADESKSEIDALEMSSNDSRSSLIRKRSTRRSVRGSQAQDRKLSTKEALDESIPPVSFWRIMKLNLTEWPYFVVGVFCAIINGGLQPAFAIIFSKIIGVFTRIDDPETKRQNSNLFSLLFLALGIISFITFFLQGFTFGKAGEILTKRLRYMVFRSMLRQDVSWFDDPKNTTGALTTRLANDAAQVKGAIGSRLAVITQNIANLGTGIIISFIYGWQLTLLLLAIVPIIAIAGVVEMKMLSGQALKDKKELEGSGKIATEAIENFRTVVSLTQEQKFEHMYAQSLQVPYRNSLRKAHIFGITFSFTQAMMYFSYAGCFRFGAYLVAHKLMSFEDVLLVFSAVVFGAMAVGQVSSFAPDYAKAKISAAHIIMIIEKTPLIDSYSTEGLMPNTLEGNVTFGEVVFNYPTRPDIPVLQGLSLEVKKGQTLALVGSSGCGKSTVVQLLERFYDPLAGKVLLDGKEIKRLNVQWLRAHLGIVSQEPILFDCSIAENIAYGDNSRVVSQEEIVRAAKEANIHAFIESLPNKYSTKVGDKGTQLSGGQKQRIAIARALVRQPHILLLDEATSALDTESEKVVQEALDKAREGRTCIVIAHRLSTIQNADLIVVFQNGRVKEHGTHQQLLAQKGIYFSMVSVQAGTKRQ
compound,measurement,setting,value
CC(=O)O[C@H]1C(=O)[C@@]2(C)[C@H]([C@H](OC(=O)c3ccccc3)[C@]3(O)C[C@H](OC(=O)[C@H](O)[C@@H](NC(=O)c4ccccc4)c4ccccc4)C(C)=C1C3(C)C)[C@]1(OC(C)=O)CO[C@@H]1C[C@@H]2O [paclitaxel],Phenotype (response to paclitaxel),[1]; beta tubulin variant Ala364Thr (G1092A),resistance
same,Phenotype (response to paclitaxel),[1]; beta tubulin variant Phe270Val (T810G),resistance
Sc1ncnc2nc[nH]c12 [6-mercaptopurine],Phenotype,[2],sensitivity
same,Phenotype,[3],sensitivity
same,Phenotype,[4],sensitivity
same,Phenotype,[5],sensitivity
N=C(N)N1CCc2ccccc2C1 [Debrisoquine],Phenotype,[6],"Debrisoquine, poor"
COc1cc2c(c(OC)c1OC)-c1ccc(OC)c(=O)cc1[C@@H](NC(C)=O)CC2 [colchicine],Phenotype: colchicine resistance,[7],increased
